Experimental data: patent publication US9428507B2, “Compounds for the treatment of malaria” (The Broad Institute, Inc., priority 2013, dated 2016)

Tests used:
Type in all cases: cell-based
P. falciparum TM90C2B = assay: In vitro P. falciparum blood-stage assay, strain TM90C2B; conditions: Plasmodium falciparum
Method: (§1) Strains of Plasmodium falciparum (Dd2, 3D7, D6, K1, NF54, V1/3, HB3, 7G8, FCB, TM90C2B) were obtained from Malaria Research and Reference Reagent Resource Center (MR4). P. falciparum isolates were maintained with O-positive human blood in an atmosphere of 93% N2, 4% CO2, 3% O2 at 37° C. in complete culturing medium (10.4 g/L RPMI 1640, 5.94 g/L HEPES, 5 g/L albumax II, 50 mg/L hypoxanthine, 2.1 g/L sodium bicarbonate, 10% human serum and 43 mg/L gentamicin). Parasites were cultured in medium until the parasitemia reached 3-8%. Parasitemia was determined by checking at least 500 red blood cells from a Giemsa-stained blood smear. For the compound screening, a parasite suspension at 2.0% parasitemia and 2.0% hematocrit was created with medium. 25 μl of medium was dispensed into 384-well, black, clear-bottom plates. 100 nl of compounds in DMSO was transferred into the assay plates along with control compound (mefloquine). Next, 25 μl of the parasite suspension in medium was dispensed into the assay plates such that the final parasitemia was 1% and the final hematocrit was 1%. The assay plates were incubated for 72 hours at 37° C. […] The assay plates were read with 505 dichroic mirrors with 485-nm excitation and 530-nm emission settings.

[1] = system: Dd2 strain of P. falciparum; assay: Activity against the Dd2 strain of P. falciparum (SYBR Green I, 72-h incubation); conditions: Plasmodium falciparum, DD2, 72 h, read-out: EC^50 Dd2
Outline: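 SYBR Green I signal (ex 485, em 530 nm) measured growth, read after 24 h dark staining in saponin/Triton lysis buffer. Before that, compound-exposed Dd2 cultures (1% parasitemia, 1.0% hematocrit, 0.125% DMSO) grew 72 h at 37° C in low-oxygen gas. Background control: 20 μM mefloquine.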

P. falciparum 7G8 = assay: In vitro P. falciparum blood-stage assay, strain 7G8; conditions: Plasmodium falciparum
Method: as §1

[2] = system: P. falciparum asexual erythocytic stage; assay: Erythrocytic stage, asexual (P. falciparum); conditions: Plasmodium falciparum
Method: as §1

P. falciparum NF54 = assay: In vitro P. falciparum blood-stage assay, strain NF54; conditions: Plasmodium falciparum
Method: as §1

P. falciparum V1/3 = assay: In vitro P. falciparum blood-stage assay, strain V1/3; conditions: Plasmodium falciparum
Method: as §1

COc1ccc2c3c([nH]c2c1)[C@H](CO)N(C(C)=O)CC31CCN(C(=O)Nc2ccccc2F)CC1 [Compound 15, (R)-2′-acetyl-N-(2-fluorophenyl)-1′-(hydroxymethyl)-7′-methoxy-1′,2′,3′,9′-tetrahydrospiro [piperidine-4,4′-pyrido[3,4-b]indole]-1-carboxamide]
IC50 (P. falciparum TM90C2B): 104 nM
EC50 [1]: 15 to 178 nM
IC50 (P. falciparum 7G8): 113 nM
IC50 [2]: 64 nM
IC50 (P. falciparum NF54): 88 nM
IC50 (P. falciparum V1/3): 98 nM
